Patent publication US10829481B2, “Benzimidazole derivatives as modulators of ROR-gamma” (Vitae Pharmaceuticals, LLC, priority 2016, dated 2020)

Target: recombinant RORγ Ligand Binding Domain (LBD) protein (Homo sapiens (Human), UniProt P51449)
Test: Radio-Ligand RORγ Binding Assay (Assay 1)
Conditions: competition with 25-hydroxy [26,27-3H]-cholesterol, SPA
Procedure: Radio-Ligand RORγ Binding Assay (Assay 1)
Compounds described herein were tested for ability to bind to RORγ in a cell-free competition assay with commercially available radio-ligand (RL), 25-hydroxy [26,27-^3H]-cholesterol (PerkinElmer, Cat. #NET674250UC), for a ligand binding site on a recombinant RORγ Ligand Binding Domain (LBD) protein expressed as a 6×His-Glutathione-S-Transferase (GST) fusion. The assay was performed in 96-well SPA plates (PerkinElmer, Cat. #1450-401) in 50 mM HEPES buffer, pH 7.4, containing 150 mM NaCl, 5 mM MgCl2, 10% (v/v) glycerol, 2 mM CHAPS, 0.5 mM β-octylglucopyranoside and 5 mM DTT. Tested compounds were dissolved in DMSO, and semi-log (3.162×) serial dilutions of the compounds were prepared in the same solvent. Two μL of the DMSO solutions were mixed with 28 μL of 8.6 nM 25-hydroxy [26,27-^3H]-cholesterol and 50 μL of 24 nM RORγ LBD. The plate was shaken at 700 rpm for 20 min and incubated for 10 min at rt, after which 40 μL of poly-Lys YSi SPA beads (PerkinElmer, Cat. #RPNQ0010) were added to achieve […] of the beads per well. The plate was incubated on an orbital shaker for 20 min and then for 10 min without agitation at rt. SPA signal for tritium beta radiation was registered on PerkinElmer Microbeta plate reader. […] The percent inhibition vs. concentration data were fit into a four-parameter model, and IC50 values were calculated from the fit as the concentrations corresponding to the inflection points on the dose-response curves. Inhibitory constants (Ki) were calculated using the following equation, where [RL] is the concentration in the assay and KD is a dissociation constant of 25-hydroxy [26,27-^3H]-cholesterol: […]

recombinant RORγ Ligand Binding Domain (LBD) protein, sequence (P51449 269-508): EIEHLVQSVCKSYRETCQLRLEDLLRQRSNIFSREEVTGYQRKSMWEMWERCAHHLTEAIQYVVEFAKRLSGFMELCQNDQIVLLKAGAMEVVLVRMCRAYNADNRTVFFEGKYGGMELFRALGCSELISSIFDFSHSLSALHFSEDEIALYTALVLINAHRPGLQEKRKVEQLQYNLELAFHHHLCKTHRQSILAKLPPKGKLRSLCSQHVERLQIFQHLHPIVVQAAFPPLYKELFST

Compound	Ki
1-((2,2-difluorobenzo[d][1,3]dioxol-4-yl)methyl)-2-(difluoromethyl)-N-(4-((2-hydroxyethyl)sulfonyl)benzyl)-1H-benzo[d]imidazole-5-carboxamide [I-44]	< 100 nM
1-((2,2-difluorobenzo[d][1,3]dioxol-4-yl)methyl)-N-((R)-1-(4-(ethylsulfonyl)phenyl)-2-hydroxyethyl)-2-((R)-tetrahydrofuran-2-yl)-1H-benzo[d]imidazole-5-carboxamide [I-15]	< 100 nM
2-cyclopropyl-N-(4-(ethylsulfonyl)benzyl)-1-((6-oxo-1-(2,2,2-trifluoroethyl)-1,6-dihydropyridin-3-yl)methyl)-1H-benzo[d]imidazole-5-carboxamide [I-117]	> 1000 nM
CCOC(=O)Cc1ccc(CC(=O)Nc2ccc3c(c2)nc(C(F)(F)F)n3Cc2cccc3c2OC(F)(F)O3)cc1 [I-7, ethyl 2-(4-(2-((1-((2,2-difluorobenzo[d][1,3]dioxol-4-yl)methyl)-2-(trifluoromethyl)-1H-benzo[d]imidazol-5-yl)amino)-2-oxoethyl)phenyl)acetate]	100 to 1000 nM
CCS(=O)(=O)c1ccc(CNC(=O)c2ccc3c(c2)nc([C@H]2C[C@H]2C#N)n3Cc2cccc3c2OC(F)(F)O3)cc1 [I-56, 2-((1S,2R)-2-cyanocyclopropyl)-1-((2,2-difluorobenzo[d][1,3]dioxol-4-yl)methyl)-N-(4-(ethylsulfonyl)benzyl)-1H-benzo[d]imidazole-5-carboxamide]	100 to 1000 nM
CCS(=O)(=O)c1ccc(CNC(=O)c2ccc3c(c2)nc(C(F)(F)F)n3Cc2nnc3n2CCC3)cc1 [I-86, 1-((6,7-dihydro-5H-pyrrolo[2,1-c][1,2,4]triazol-3-yl)methyl)-N-(4-(ethylsulfonyl)benzyl)-2-(trifluoromethyl)-1H-benzo[d]imidazole-5-carboxamide]	> 1000 nM
CCS(=O)(=O)c1ccc(CNC(=O)c2ccc3c(c2)nc(C2CC2)n3C[C@H]2CCN(C(=O)OC(C)(C)C)C2)cc1 [I-107, tert-butyl (R)-3-((2-cyclopropyl-5-((4-(ethylsulfonyl)benzyl)carbamoyl)-1H-benzo[d]imidazol-1-yl)methyl)pyrrolidine-1-carboxylate]	> 1000 nM
CCS(=O)(=O)c1ccc(CNC(=O)c2ccc3c(c2)nc(C2CC2)n3C[C@H]2CCCN2C(=O)OC(C)(C)C)cc1 [I-108, tert-butyl (R)-2-((2-cyclopropyl-5-((4-(ethylsulfonyl)benzyl)carbamoyl)-1H-benzo[d]imidazol-1-yl)methyl)pyrrolidine-1-carboxylate]	> 1000 nM
CCS(=O)(=O)c1ccc(CNC(=O)c2ccc3c(c2)nc(C2CC2)n3Cc2cnn(CC(F)(F)F)c2)cc1 [I-111, 2-cyclopropyl-N-(4-(ethylsulfonyl)benzyl)-1-((1-(2,2,2-trifluoroethyl)-1H-pyrazol-4-yl)methyl)-1H-benzo[d]imidazole-5-carboxamide]	> 1000 nM
CCS(=O)(=O)c1ccc(CNC(=O)c2ccc3c(c2)nc(C2CC2)n3Cc2cccc(C#N)c2)cc1 [I-112, 1-(3-cyanobenzyl)-2-cyclopropyl-N-(4-(ethylsulfonyl)benzyl)-1H-benzo[d]imidazole-5-carboxamide]	100 to 1000 nM
CCS(=O)(=O)c1ccc(CNC(=O)c2ccc3c(c2)nc(C2CC2)n3Cc2ccn(CC(F)(F)F)n2)cc1 [I-114, 2-cyclopropyl-N-(4-(ethylsulfonyl)benzyl)-1-((1-(2,2,2-trifluoroethyl)-1H-pyrazol-3-yl)methyl)-1H-benzo[d]imidazole-5-carboxamide]	> 1000 nM
CCS(=O)(=O)c1ccc([C@@H](CO)NC(=O)c2ccc3c(c2)nc(C2CC2)n3Cc2cccc3c2OC(F)(F)O3)nc1 [I-133.2, (S)-2-cyclopropyl-1-((2,2-difluorobenzo[d][1,3]dioxol-4-yl)methyl)-N-(1-(5-(ethylsulfonyl)pyridin-2-yl)-2-hydroxyethyl)-1H-benzo[d]imidazole-5-carboxamide]	100 to 1000 nM
CS(=O)(=O)c1ccc([C@H](CO)NC(=O)c2ccc3c(c2)nc(C(F)(F)F)n3Cc2cccc3c2OC(F)(F)O3)nc1 [I-135, (R)-1-((2,2-difluorobenzo[d][1,3]dioxol-4-yl)methyl)-N-(2-hydroxy-1-(5-(methylsulfonyl)pyridin-2-yl)ethyl)-2-(trifluoromethyl)-1H-benzo[d]imidazole-5-carboxamide]	100 to 1000 nM
CCS(=O)(=O)c1ccc(CNC(=O)c2ccc3c(c2)nc(C(F)(F)F)n3CC2CCN(C(=O)OC(C)(C)C)CC2)cc1 [I-145, tert-butyl 4-((5-((4-(ethylsulfonyl)benzyl)carbamoyl)-2-(trifluoromethyl)-1H-benzo[d]imidazol-1-yl)methyl)piperidine-1-carboxylate]	100 to 1000 nM
CCS(=O)(=O)c1ccc(CNC(=O)c2ccc3c(c2)nc(C(F)(F)F)n3Cc2cccn(C)c2=O)cc1 [I-146, N-(4-(ethylsulfonyl)benzyl)-1-((1-methyl-2-oxo-1,2-dihydropyridin-3-yl)methyl)-2-(trifluoromethyl)-1H-benzo[d]imidazole-5-carboxamide]	100 to 1000 nM
CCS(=O)(=O)c1ccc(CNC(=O)c2ccc3c(c2)nc(C2CC2)n3C[C@H]2CCN(CC(F)(F)F)C2)cc1 [I-156, (S)-2-cyclopropyl-N-(4-(ethylsulfonyl)benzyl)-1-((1-(2,2,2-trifluoroethyl)pyrrolidin-3-yl)methyl)-1H-benzo[d]imidazole-5-carboxamide]	> 1000 nM
CCS(=O)(=O)c1ccc(CNC(=O)c2ccc3c(c2)nc(C2CC2)n3C[C@H]2CCCN2CC(F)(F)F)cc1 [I-157, (R)-2-cyclopropyl-N-(4-(ethylsulfonyl)benzyl)-1-((1-(2,2,2-trifluoroethyl)pyrrolidin-2-yl)methyl)-1H-benzo[d]imidazole-5-carboxamide]	> 1000 nM
CCS(=O)(=O)c1ccc(CNC(=O)c2ccc3c(c2)nc(C2CC2)n3C[C@H]2CCN(c3ncc(F)cn3)C2)cc1 [I-159, (R)-2-cyclopropyl-N-(4-(ethylsulfonyl)benzyl)-1-((1-(5-fluoropyrimidin-2-yl)pyrrolidin-3-yl)methyl)-1H-benzo[d]imidazole-5-carboxamide]	> 1000 nM
CN1CCN(S(C)(=O)=O)CCC1CNC(=O)c1ccc2c(c1)nc(C(F)(F)F)n2Cc1cccc2c1OC(F)(F)O2 (stereo not shown) [I-171, 1-((2,2-difluorobenzo[d][1,3]dioxol-4-yl)methyl)-N-((4-methyl-1-(methylsulfonyl)-1,4-diazepan-5-yl)methyl)-2-(trifluoromethyl)-1H-benzo[d]imidazole-5-carboxamide]	100 to 1000 nM
CCS(=O)(=O)c1ccc(C(CO)(CO)NC(=O)c2ccc3c(c2)nc(C(F)(F)F)n3Cc2cccc3c2OC(F)(F)O3)cc1 [I-174, 1-((2,2-difluorobenzo[d][1,3]dioxol-4-yl)methyl)-N-(2-(4-(ethylsulfonyl)phenyl)-1,3-dihydroxypropan-2-yl)-2-(trifluoromethyl)-1H-benzo[d]imidazole-5-carboxamide]	< 100 nM

Target: full-length RORγt in Jurkat cells (Homo sapiens (Human), UniProt P51449)
Sequence (P51449 other isoform, or with tags, fused parts or gaps): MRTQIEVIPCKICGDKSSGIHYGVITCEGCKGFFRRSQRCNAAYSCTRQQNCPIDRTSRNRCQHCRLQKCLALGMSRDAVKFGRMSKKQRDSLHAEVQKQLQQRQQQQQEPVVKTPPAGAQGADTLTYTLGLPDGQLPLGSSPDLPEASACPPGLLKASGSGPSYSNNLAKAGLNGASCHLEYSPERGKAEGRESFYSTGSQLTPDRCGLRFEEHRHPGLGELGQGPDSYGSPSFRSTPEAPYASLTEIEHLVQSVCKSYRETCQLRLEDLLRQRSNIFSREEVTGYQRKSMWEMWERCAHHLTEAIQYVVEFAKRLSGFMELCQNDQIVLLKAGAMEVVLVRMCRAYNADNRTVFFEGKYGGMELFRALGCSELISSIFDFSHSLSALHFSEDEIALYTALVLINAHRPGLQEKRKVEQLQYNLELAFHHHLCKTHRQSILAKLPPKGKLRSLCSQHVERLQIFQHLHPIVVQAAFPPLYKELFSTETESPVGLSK
Test: RORγt 5×RORE Assay in Jurkat Cells (Assay 2)
Type: cell-based
Conditions: 5×RORE Nanoluc luciferase reporter
Procedure: RORγt 5×RORE Assay in Jurkat Cells (Assay 2)
Compounds described herein were tested for RORγ inverse agonist activity in a cell-based, transcriptional activity assay. Secreted Nanoluc® luciferase was used as a reporter for transcriptional activity of the full-length RORγt in Jurkat cells (ATCC, Cat. #TIB-152). […] (Promega, Cat. #N1021) using KpnI and HindIII restriction sites. […] After 5-6 hrs of incubation at 37° C./5% CO2, the cells were collected, resuspended in phenol-red free RPMI media containing 10% (v/v) delipidated FBS (Hyclone, Cat. #SH30855.03) and dispensed into 96-well clear bottom tissue culture plates (CoStar, Cat. #3603), at 80,000 cells per well. Tested compounds were added to the cells in the same media (final concentration of DMSO was 0.1% (v/v)), and the plates were incubated at 37° C./5% CO2 for 16-18 hrs. Luciferase activity in the conditioned supernatants was determined with NanoGlo® assay reagents (Promega, Cat. #N1130).

Compound	IC50
1-((2,2-difluorobenzo[d][1,3]dioxol-4-yl)methyl)-2-(difluoromethyl)-N-(4-((2-hydroxyethyl)sulfonyl)benzyl)-1H-benzo[d]imidazole-5-carboxamide [I-44]	< 100 nM
1-((2,2-difluorobenzo[d][1,3]dioxol-4-yl)methyl)-N-((R)-1-(4-(ethylsulfonyl)phenyl)-2-hydroxyethyl)-2-((R)-tetrahydrofuran-2-yl)-1H-benzo[d]imidazole-5-carboxamide [I-15]	< 100 nM
CCS(=O)(=O)c1ccc([C@H](CO)NC(=O)c2ccc3c(c2)nc(C2CC2)n3Cc2cccc3c2OC(F)(F)O3)cc1 [I-12, (R)-2-cyclopropyl-1-((2,2-difluorobenzo[d][1,3]dioxol-4-yl)methyl)-N-(1-(4-(ethylsulfonyl)phenyl)-2-hydroxyethyl)-1H-benzo[d]imidazole-5-carboxamide]	< 100 nM
CCS(=O)(=O)c1ccc([C@H](CO)NC(=O)c2ccc3c(c2)nc(C2(F)CCC2)n3Cc2cccc3c2OC(F)(F)O3)cc1 [I-19, (R)-1-((2,2-difluorobenzo[d][1,3]dioxol-4-yl)methyl)-N-(1-(4-(ethylsulfonyl)phenyl)-2-hydroxyethyl)-2-(1-fluorocyclobutyl)-1H-benzo[d]imidazole-5-carboxamide]	< 100 nM
CCS(=O)(=O)c1ccc(CNC(=O)c2ccc3c(c2)nc(C(F)(F)F)n3Cc2cccc3c2OC(F)(F)O3)[n+]([O-])c1 [I-161, 2-((1-((2,2-difluorobenzo[d][1,3]dioxol-4-yl)methyl)-2-(trifluoromethyl)-1H-benzo[d]imidazole-5-carboxamido)methyl)-5-(ethylsulfonyl)pyridine 1-oxide]	< 100 nM
